These results are taken from paper PMC6934184, “Selective DNA-PKcs inhibition extends the therapeutic index of localized radiotherapy and chemotherapy” (The Journal of Clinical Investigation, 2019).

The assay concerns the target T1, RIPK2 (Homo sapiens, UniProt O43353).
T1 construct: purchased Thermo Fisher Scientific (Life Technologies) SelectScreen
The experiment in a line: SelectScreen LanthaScreen. Type of assay: binding. Particulars: read-out: % displacement. On the procedure:
The in vitro kinase selectivity of NU5455 was determined using the SelectScreen Broad Assay Panel (Thermo Fisher Scientific) involving activity and binding assays (Supplemental Table 1). […] Class IA PI3Ks were measured using the p85α subunit.
Kinase [ATP] % Assay Kinase [ATP] % Assay Kinase [ATP] % Assay Kinase [ATP] % Assay […]
MAPK11 (p38 beta) Km app 9.5 Z RIPK2 n/a 3.1 L AKT2 (PKB beta) Km app 0.0 Z PRKCE (PKC epsilon) Km app -4.9 Z […]
SGK (SGK1) Km app 8.5 Z MAP4K2 (GCK) Km app 2.7 Z TLK2 n/a -0.3 L STK38 (NDR) n/a -5.9 L
MERTK (cMER) Km app 8.3 Z CDK2/cyclin A Km app 2.7 Z TGFBR1 (ALK5) n/a -0.4 L MATK (HYL) Km app -6.3 Z
FYN Km app 8.3 Z EPHA1 Km app 2.7 Z CLK3 Km app -0.5 Z ABL1 E255K Km app -6.6 Z
TEC n/a 8.1 L CDK2/cyclin E1 n/a 2.7 L MAP3K14 (NIK) n/a -0.5 L STK17A (DRAK1) n/a -6.6 L
KIT V654A n/a 8.1 L TESK2 n/a 2.7 L AKT3 (PKB gamma) Km app -0.5 Z JAK2 JH1 JH2 Km app -6.7 Z
ROS1 Km app 8.0 Z SPHK1 Km app 2.7 A MAP3K9 (MLK1) Km app -0.5 Z PRKACB (PRKAC beta) n/a -6.8 L
FGFR3 K650E Km app 7.9 Z AMPK A2/B1/G1 Km app 2.6 Z IKBKB (IKK beta) Km app -0.6 Z PDGFRA (PDGFR alpha) Km app -6.8 Z
RAF1 (cRAF) Y340D Y341D 100 7.9 Z DYRK3 Km app 2.6 Z CAMK2A (CaMKII alpha) Km app -0.6 Z NEK9 Km app -7.2 Z
PI4KA (PI4K alpha) 10 7.8 A CSNK1D (CK1 delta) Km app 2.6 Z PRKCB1 (PKC beta I) Km app -0.7 Z PDK1 Km app -7.3 Z […]
On the technique in general: In TR-FRET formats the signal depends on donor and acceptor labels being close together.

T1 sequence (O43353 whole entry): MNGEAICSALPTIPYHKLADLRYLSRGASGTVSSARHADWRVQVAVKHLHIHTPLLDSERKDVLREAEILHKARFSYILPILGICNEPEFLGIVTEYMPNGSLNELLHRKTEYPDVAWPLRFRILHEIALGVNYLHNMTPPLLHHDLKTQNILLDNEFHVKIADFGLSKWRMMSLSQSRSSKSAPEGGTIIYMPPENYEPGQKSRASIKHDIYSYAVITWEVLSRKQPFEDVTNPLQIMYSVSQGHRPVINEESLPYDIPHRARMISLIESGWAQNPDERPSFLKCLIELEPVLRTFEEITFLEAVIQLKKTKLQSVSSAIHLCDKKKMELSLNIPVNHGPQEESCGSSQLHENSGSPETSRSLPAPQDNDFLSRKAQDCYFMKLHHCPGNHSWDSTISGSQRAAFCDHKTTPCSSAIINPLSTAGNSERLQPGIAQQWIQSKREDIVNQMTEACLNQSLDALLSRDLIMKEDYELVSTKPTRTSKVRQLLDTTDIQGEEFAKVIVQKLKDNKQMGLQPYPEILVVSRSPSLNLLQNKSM

Consider `CN(C(=O)CN1CCOCC1)c1ccc2sc3c(-c4cccc5c(=O)cc(N6CC7CCC(C6)O7)oc45)cccc3c2c1` [NU5455], for which the inhibition at 1 µM stood at 3.1%.
